Values quoted from earlier work in PMC7220402 (Medicine, 2020).

COc1c(C)c2c(c(O)c1C/C=C(\C)CCC(=O)O)C(=O)OC2 [MPA, mycophenolic acid]
Variation in dose-normalized MPA exposure: 10 fold
